Data: patent US20230043863A1, “HETEROAROMATIC DERIVATIVES FOR USE AS REGULATOR, PREPARATION METHOD THEREFOR AND USE THEREOF” (JIANGSU HANSOH PHARMACEUTICAL GROUP CO., LTD., priority 2018, published 2023)
Like-named read-outs stand apart in the source and are kept apart here.

Key:
JAK1 = JAK1 (Homo sapiens, UniProt P23458); assay: JAK kinase activity inhibition, TR-FRET (JAK1); type: biochemical; details: TR-FRET kinase assay
Outline: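 Recombinant kinase at 0.1-20 nM, peptide substrate, ATP; room temperature, 0.5-5 h; EDTA stop, labeled-antibody TR-FRET readout; IC50 by curve fit.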

[1] = tested on: JAK-STAT signal pathway of U266 cells; assay: Inhibition of cellular JAK-STAT signal pathway (STAT3 phosphorylation) in U266 cells; type: cell-based, human; details: Homo sapiens, U-266, INF-a 1000 U/mL stimulation
Outline: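 U266 cells (100-300 K/well) preincubated 2 h at room temperature with serially diluted compound, then stimulated 15 min with IFN-α at 1000 U/mL final. After lysis, STAT3 phosphorylation read by LANCE Ultra TR-FRET (Eu antibody 0.5 nM, ULight antibody 5 nM, overnight) at 665 nm; IC50 from 4-parameter fit of inhibition versus DMSO and negative controls.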

[2] = Balb/C mouse pharmacokinetics (plasma, colon, ileum); type: in vivo; details: male, po, Balb/C mice, p.o. 5 mg/kg; for Cmax: read-out: Blood concentration Cmax; for AUC(0-t): read-out: Curve area AUC0-t; for MRT: read-out: Mean detention time MRT; for Tmax: read-out: Time to peak tmax; for AUC(0-inf): read-out: Curve area AUC0-∞; for half-life: read-out: Half life period t1/2 (converted)
Outline: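 Male Balb/C mice (12 per group), fasted overnight, given 5 mg/kg p.o.; plasma, ileum and colon sampled at 0–7 h. Drug levels by LC/MS/MS, […]; parameters include colon/ileum and colon/plasma concentration ratios.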

Sequence of JAK1 (P23458 whole entry): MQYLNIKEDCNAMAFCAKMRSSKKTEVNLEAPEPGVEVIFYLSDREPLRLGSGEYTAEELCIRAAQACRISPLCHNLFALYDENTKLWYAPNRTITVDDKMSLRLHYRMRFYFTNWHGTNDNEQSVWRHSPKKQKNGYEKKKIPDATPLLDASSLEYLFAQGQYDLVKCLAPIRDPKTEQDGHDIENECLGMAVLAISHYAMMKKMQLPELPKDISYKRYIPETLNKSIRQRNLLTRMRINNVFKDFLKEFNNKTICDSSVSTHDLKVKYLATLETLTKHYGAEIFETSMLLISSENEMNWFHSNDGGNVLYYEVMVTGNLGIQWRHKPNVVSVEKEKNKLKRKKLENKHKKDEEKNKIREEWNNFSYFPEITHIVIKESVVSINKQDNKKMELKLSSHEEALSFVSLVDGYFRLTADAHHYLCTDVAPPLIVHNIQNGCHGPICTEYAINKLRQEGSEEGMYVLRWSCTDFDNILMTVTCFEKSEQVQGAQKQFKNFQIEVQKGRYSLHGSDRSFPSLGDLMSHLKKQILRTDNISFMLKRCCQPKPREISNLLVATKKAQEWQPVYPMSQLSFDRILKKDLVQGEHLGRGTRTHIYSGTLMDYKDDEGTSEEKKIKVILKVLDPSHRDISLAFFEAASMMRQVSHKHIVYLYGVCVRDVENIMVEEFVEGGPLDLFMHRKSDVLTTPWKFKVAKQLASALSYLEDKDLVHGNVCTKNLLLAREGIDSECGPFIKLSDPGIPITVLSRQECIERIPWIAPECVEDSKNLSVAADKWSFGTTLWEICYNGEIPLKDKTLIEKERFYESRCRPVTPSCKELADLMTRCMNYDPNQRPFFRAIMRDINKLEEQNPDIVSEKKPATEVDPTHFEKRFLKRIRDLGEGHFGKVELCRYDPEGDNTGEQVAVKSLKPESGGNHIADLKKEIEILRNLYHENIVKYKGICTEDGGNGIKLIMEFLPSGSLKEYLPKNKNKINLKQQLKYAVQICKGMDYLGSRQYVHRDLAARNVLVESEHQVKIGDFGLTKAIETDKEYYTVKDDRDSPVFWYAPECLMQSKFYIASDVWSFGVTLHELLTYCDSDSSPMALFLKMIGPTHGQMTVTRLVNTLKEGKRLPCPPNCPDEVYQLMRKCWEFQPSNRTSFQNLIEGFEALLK

SMILES	IC50 (JAK1)	IC50 [1]	Cmax ([2]; plasma, blood)	AUC(0-t) ([2]; plasma, blood)	MRT ([2]; plasma, blood)	Tmax ([2]; plasma, blood)	Cmax ([2]; colon)	AUC(0-t) ([2]; colon)	MRT ([2]; colon)	Tmax ([2]; colon)	Cmax ([2]; ileum)	AUC(0-t) ([2]; ileum)	AUC(0-inf) ([2]; ileum)	half-life ([2]; ileum)	MRT ([2]; ileum)	Tmax ([2]; ileum)	AUC(0-inf) ([2]; plasma, blood)	half-life ([2]; plasma, blood)
Cc1cc(Nc2nc(N[C@@H]3C[C@H]4CCC[C@@H](C3)N4CCC#N)nc3scnc23)n[nH]1 [Embodiment 278, 3-((3-exo)-3-((7-((5-methyl-1H-pyrazol-3-yl)amino)thiazolo[5,4-d]pyrimidin-5-yl)amino)-9-azabicyclo[3.3.1]non-9-yl)propionitrile]	0.71 nM	0.29 nM	1.79 ng/mL	3.62 ng·h/mL	1.5 h	0.5 h	1300 ng/mL	4640 ng·h/mL	4.26 h	5 h	3700 ng/mL	6240 ng·h/mL	6260 ng·h/mL	0.95 h	1.28 h	1 h		
Cc1cc(Nc2nc(N[C@@H]3C[C@H]4CCC[C@@H](C3)N4C(=O)c3ccccn3)nc3sccc23)n[nH]1 [Embodiment 260, ((3-exo)-3-((4-((5-methyl-1H-pyrazol-3-yl)amino)thieno[2,3-d]pyrimidin-2-yl)amino)-9-azabicyclo[3.3.1]non-9-yl)(pyridin-2-yl)methanone]	0.19 nM	1.1 nM	24 ng/mL	27.3 ng·h/mL	1.37 h	1 h	8880 ng/mL	24400 ng·h/mL	3.39 h	3 h	9080 ng/mL	18500 ng·h/mL	18700 ng·h/mL	1.01 h	1.57 h	1 h	29.4 ng·h/mL	1.57 h
Cc1cc(Nc2nc(N[C@@H]3C[C@H]4CCC[C@@H](C3)N4C(=O)CN3CCOCC3)nc3sccc23)n[nH]1 [Embodiment 246, 1-((3-exo)-3-((4-((5-methyl-1H-pyrazol-3-yl)amino)thieno[2,3-d]pyrimidin-2-yl)amino)-9-azabicyclo[3.3.1]non-9-yl)-2-morpholinoethane-1-one]	0.22 nM	1 nM	5.56 ng/mL	4.76 ng·h/mL	1.46 h	2 h	3260 ng/mL	13800 ng·h/mL	4.79 h	7 h	16800 ng/mL	27900 ng·h/mL	28400 ng·h/mL	1.81 h	1.28 h	1 h		
Cc1cnc(Nc2cc3ncccc3c(N[C@@H]3C[C@H]4CC[C@@H](C3)N4CCC#N)n2)s1 [Embodiment 1, 3-((3-exo)-3-((7-((5-methylthioazol-2-yl)amino)-1,6-diazanaphthalen-5-yl)amino)-8-azabicyclo[3.2.1]oct-8-yl)propionitrile]	0.34 nM	0.15 nM	25.6 ng/mL	58.1 ng·h/mL	2.03 h	0.5 h	2720 ng/mL	8320 ng·h/mL	3.68 h	3 h	27100 ng/mL	90500 ng·h/mL	93700 ng·h/mL	1.08 h	2.84 h	3 h	61.5 ng·h/mL	1.75 h
Cc1cc(Nc2nc(N[C@@H]3C[C@H]4CC[C@@H](C3)N4CCC#N)nc3ccsc23)n[nH]1 [Embodiment 60, 3-((3-exo)-3-((4-((5-methyl-1H-pyrazol-3-yl)amino)thieno[3,2-d]pyrimidin-2-yl)amino)-8-azabicyclo[3.2.1]oct-8-yl)propionitrile]	0.12 nM	2.9 nM	10.3 ng/mL	31.1 ng·h/mL	2.58 h	2 h	2310 ng/mL	9130 ng·h/mL	3.83 h	5 h	26100 ng/mL	98000 ng·h/mL	103000 ng·h/mL	1.26 h	2.49 h	1 h	32.9 ng·h/mL	1.41 h
Cc1cc(Nc2nc(N[C@@H]3C[C@H]4CC[C@@H](C3)N4S(=O)(=O)N3CC(C#N)C3)nc3cc(Cl)ccc23)n[nH]1 [Embodiment 214]	0.35 nM	17.7 nM	1.6 ng/mL	3.59 ng·h/mL	1.82 h	3 h	5590 ng/mL	19500 ng·h/mL	4.4 h	5 h	24800 ng/mL	49300 ng·h/mL	49500 ng·h/mL	0.79 h	1.52 h	1 h		
Cc1cc(Nc2nc(N[C@@H]3C[C@H]4CC[C@@H](C3)N4CCC#N)nc3sc(C)cc23)n[nH]1 [Embodiment 277, 3-((3-exo)-3-((6-methyl-4-((5-methyl-1H-pyrazol-3-yl)amino)thieno[2,3-d]pyrimidin-2-yl)amino)-8-azabicyclo[3.2.1]oct-8-yl)propionitrile]	0.61 nM	0.49 nM	12 ng/mL	29.1 ng·h/mL	2.53 h	2 h	649 ng/mL	2890 ng·h/mL	3.89 h	7 h	18700 ng/mL	43000 ng·h/mL	43300 ng·h/mL	0.92 h	1.77 h	1 h	31.1 ng·h/mL	0.96 h
Cc1cc(Nc2nc(N(C)[C@@H]3C[C@H]4CCC[C@@H](C3)N4C(=O)CN3CCN(C)CC3)nc3sccc23)n[nH]1 [Embodiment 257, 1-((3-exo)-3-(methyl(4-((5-methyl-1H-pyrazol-3-yl)amino)thieno[2,3-d]pyrimidin-2-yl)amino)-9-azabicyclo[3.3.1]non-9-yl)-2-(4-methylpiperazin-1-yl)ethane-1-one]	0.07 nM	1.45 nM	33.9 ng/mL	64.7 ng·h/mL	2.18 h	1 h	3990 ng/mL	12300 ng·h/mL	4.24 h	5 h	25800 ng/mL	104000 ng·h/mL	123000 ng·h/mL	1.98 h	3.07 h	3 h	64.8 ng·h/mL	1.22 h
Cc1cc(Nc2nc(N[C@@H]3C[C@H]4CC[C@@H](C3)N4CCC#N)nc3cc(Cl)ccc23)n[nH]1 [Embodiment 171, 3-((3-exo)-3-((7-chloro-4-((5-methyl-1H-pyrazol-3-yl)amino)quinazolin-2-yl)amino)-8-azabicyclo[3.2.1]oct-8-yl)propionitrile]	0.85 nM	0.85 nM	8.91 ng/mL	23.4 ng·h/mL	3.05 h	2 h	438 ng/mL	2010 ng·h/mL	4.24 h	3 h	17000 ng/mL	79800 ng·h/mL			3.35 h	3 h	26.7 ng·h/mL	1.93 h
CNCC(=O)N1[C@@H]2CCC[C@H]1C[C@H](Nc1nc(Nc3cc(C)[nH]n3)c3ccsc3n1)C2 [Embodiment 247, 1-((3-exo)-3-((4-((5-methyl-1H-pyrazol-3-yl)amino)thieno[2,3-d]pyrimidin-2-yl)amino)-9-azabicyclo[3.3.1]non-9-yl)-2-(methylamino)-ethane-1-one]	0.1 nM	2.27 nM					2270 ng/mL	10200 ng·h/mL	4.05 h	3 h	13800 ng/mL	24700 ng·h/mL	24900 ng·h/mL	0.92 h	1.39 h	1 h		
